Source: patent US20210317092A1 (BAYER PHARMA AKTIENGESELLSCHAFT, priority 2016, published 2021)

Target: T1, human Bradykinin B1 receptor (Homo sapiens, UniProt P46663)
T1 construct: host or cells: CHO-K1
T1 sequence (P46663 1-353): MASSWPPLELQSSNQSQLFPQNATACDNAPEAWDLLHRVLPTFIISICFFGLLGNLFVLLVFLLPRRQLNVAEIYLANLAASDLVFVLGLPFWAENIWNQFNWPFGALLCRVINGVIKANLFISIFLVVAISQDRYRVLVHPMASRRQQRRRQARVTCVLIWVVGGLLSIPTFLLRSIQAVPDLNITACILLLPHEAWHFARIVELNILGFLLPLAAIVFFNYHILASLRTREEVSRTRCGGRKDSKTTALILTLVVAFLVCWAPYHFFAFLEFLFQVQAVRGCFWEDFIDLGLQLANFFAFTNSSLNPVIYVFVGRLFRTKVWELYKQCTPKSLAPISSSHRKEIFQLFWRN
Experiment: Calcium flux Assay (FLIPR) with recombinant CHO-K1 cells expressing human Bradykinin B1 receptor, in presence (hB1 IC50) or absence (hB1 free IC50) of 0.1% BSA
Assay type: cell-based
Conditions: in absence of 0.1% BSA, read-out: hB1 free IC50
Protocol: The potency to inhibit the Bradykinin B1 receptor was determined for the compounds of this invention in a cell-based fluorescent calcium-mobilisation assay. The assay measures the ability of test compounds to inhibit Bradykinin B1 receptor agonist-induced increase of intracellular free Ca^2+ in the cell line expressing Bradykinin B1 receptor. […] The change of the intracellular Ca^2+ concentration is monitored with a fluorescent plate reader FLIPR TETRA® (Molecular Devices).
Calcium flux Assays (FLIPR) with cells expressing human Bradykinin B1 receptor (hB1)
CHO-K1 cell line expressing human Bradykinin B1 receptor was purchased from Euroscreen (Gosselies, Belgium, with reference name hB1-D1). The cells were grown in Nutrient Mixture Ham's F12 (Sigma) containing 10% Foetal bovine serum (Sigma) and 400 μg/mL G418 (Sigma), 5 μg/mL puromycim (Sigma). […]
Cells were seeded in a volume of 50 μL in medium without antibiotics and incubated overnight in a humidified atmosphere with 5% CO2 at 37° C. […] The calcium indicator loaded cells were incubated at 37° C. for 2 hrs. Extracellular dye was then removed and each well was filled with 45 μL of assay buffer. Cell plates were kept in dark until used. Compound examples were assayed at 8 concentrations in triplicate. Serial 10-fold dilutions in 100% DMSO were made at a 100-times higher concentration than the final concentration, and then diluted 1:10 in assay buffer. 5 μL of each diluted compound was added to the well of cell plates (yielding final concentration with 1% DMSO), and incubated for 30 min at 28° C. before the addition of Bradykinin B1 receptor agonist on the FLIPR instrument.
A peptide antagonist Lys-(Des-Arg-Leu)-Bradykinin (Bachem, Brackley) at 20 µM was used to determine the full inhibition as control.
Peak fluorescence was used to determine the response to agonist obtained at each concentration of compound examples by the following equation:
% Response=100*(RFU(compound)−RFU(control))/(RFU(DMSO)−RFU(control)) • RFU means relative fluorescence units. • Control means full inhibition by the peptide antagonist Lys-(Des-Arg-Leu)-Bradykinin at 20 µM.
The response values were plotted against the logarithm of the compound concentrations. The compound examples were tested in triplicates per plate and mean values were plotted in Excel XLfit to determine IC50 values, percentage of maximal inhibition and the Hill slopes.

Compound | IC50
1-(3,4- difluorophenyl)- N-{3-(1H- tetrazol-5-yl)-4- [3-(2,2,2- trifluoroethyl)- 1H-pyrazol-1- yl]phenyl}cyclopro- panecarboxa- mide [Example 387] | 434 nM
1-(3- chlorophenyl)- N-[3-(1H- tetrazol-5-yl)- 6′- (trifluoromethyl)- 2,3′-bipyridin- 5- yl]cyclopropane carboxamide [Example 217] | 516 nM
1-[2-fluoro-4- (trifluoromethoxy)- phenyl]-N-{3- (1H-tetrazol-5- yl)-4-[3-(2,2,2- trifluoroethyl)- 1H-pyrazol-1- yl]phenyl}cyclopro- panecarboxa- mide [Example 390] | 14 nM
1-[2-fluoro-4- (trifluoromethyl) phenyl]-N-[4- (4-isopropyl-1H- pyrazol-1-yl)-3- (1H-tetrazol-5- yl)phenyl]cyclopro- panecarboxa- mide [Example 399] | 5.16 nM
COc1ccc(-c2ccc(NC(=O)C3(c4ccccc4F)CC3(C)C)cc2-c2nnn[nH]2)cc1OC (stereo not shown) [Example 8, N-[3′,4′-dimethoxy-2-(1H-tetrazol-5-yl)biphenyl-4-yl]-1-(2-fluorophenyl)-2,2-dimethylcyclo-propane-carboxamide] | 337 nM
COc1ccc(-c2ccc(NC(=O)C3(c4ccc(C(F)(F)F)cc4F)CC3)cc2-c2nnn[nH]2)cc1OC [Example 20, N-[3′,4′-dimethoxy-2-(1H-tetrazol-5-yl)biphenyl-4-yl]-1-[2-fluoro-4-(trifluoromethyl)phenyl] cyclopropane-carboxamide] | 29.2 nM
COc1ccc(-c2ccc(NC(=O)C3(c4ccc(F)c(F)c4)CC3)cc2-c2nnn[nH]2)cc1OC [Example 25, 1-(3,4-difluorophenyl)-N-[3′,4′-dimethoxy-2-(1H-tetrazol-5-yl)biphenyl-4-yl]cyclopropane-carboxamide] | 25.9 nM

Same assay, conditions: in presence of 0.1% BSA, read-out: hB1 IC50

IC50 | Compound
1350 nM | COc1ccc(-c2ccc(NC(=O)C3(C4CCC(C)CC4)CC3)cc2-c2nnn[nH]2)cc1 (mixture of isomers) [Example 114, N-[4′-methoxy-2-(1H-tetrazol-5-yl)biphenyl-4-yl]-1-(4-methylcyclo-hexyl) cyclopropane carboxamide]
122 nM | COc1ccc(-c2ccc(NC(=O)C3(C4CCC(C)CC4)CC3)cc2-c2nnn[nH]2)cc1OC (single isomer, unassigned) [Example 52, N-[3′,4′-dimethoxy-2-(1H-tetrazol-5-yl)biphenyl-4-yl]-1-(4-methylcyclohexyl) cyclopropane carboxamide]
1200 nM | COc1ccc(-c2ccc(NC(=O)C3(C4CCC(C)CC4)CC3)cc2-c2nnn[nH]2)cc1 (single isomer, unassigned) [Example 113, N-[4′-methoxy-2-(1H-tetrazol-5-yl)biphenyl-4-yl]-1-(4-methylcyclo-hexyl) cyclopropane carboxamide]
58.9 nM | COc1ccc(-c2ccc(NC(=O)C3(c4ccc(F)cc4F)CC3)cc2-c2nnn[nH]2)cc1OC [Example 2, 1-(2,4-difluorophenyl)-N-[3′,4′-dimethoxy-2-(1H-tetrazol-5-yl)biphenyl-4-yl]cyclopropane carboxamide]
54.8 nM | COc1ccc(-c2ccc(NC(=O)C3(c4ccccc4F)CC3)cc2-c2nnn[nH]2)cc1OC [Example 3, N-[3′,4′-dimethoxy-2-(1H-tetrazol-5-yl)biphenyl-4-yl]-1-(2-fluorophenyl) cyclopropane-carboxamide]
158 nM | COc1ccc(-c2ccc(NC(=O)C3(c4ccccc4OC(F)(F)F)CC3)cc2-c2nnn[nH]2)cc1OC [Example 4, N-[3′,4′-dimethoxy-2-(1H-tetrazol-5-yl)biphenyl-4-yl]-1-[2-(trifluoro-methoxy)phenyl] cyclopropane-carboxamide]
1510 nM | COc1ccc(-c2ccc(NC(=O)C3(c4ccc(C)cc4)CC3(C)C)cc2-c2nnn[nH]2)cc1OC (stereo not shown) [Example 5, N-[3′,4′-dimethoxy-2-(1H-tetrazol-5-yl)biphenyl-4-yl]-2,2-dimethyl-1-(4-methylpheny) cyclopropane carboxamide]
1370 nM | COc1ccc(-c2ccc(NC(=O)C3(c4ccc(F)cc4)CC3(C)C)cc2-c2nnn[nH]2)cc1OC (stereo not shown) [Example 6]
1350 nM | COc1ccc(-c2ccc(NC(=O)C3(c4ccccc4)CC3(C)C)cc2-c2nnn[nH]2)cc1OC (stereo not shown) [Example 7, N-[3′,4′-dimethoxy-2-(1H-tetrazol-5-yl)biphenyl-4-yl]-2,2-dimethyl-1-phenylcyclo-propane-carboxamide]
347 nM | COc1ccc(-c2ccc(NC(=O)C3(c4ccccc4F)CC3(C)C)cc2-c2nnn[nH]2)cc1OC (stereo not shown) [Example 8, N-[3′,4′-dimethoxy-2-(1H-tetrazol-5-yl)biphenyl-4-yl]-1-(2-fluorophenyl)-2,2-dimethylcyclo-propane-carboxamide]
660 nM | COc1ccc(-c2ccc(NC(=O)C3(c4ccccn4)CC3)cc2-c2nnn[nH]2)cc1OC [Example 9]
68.8 nM | COc1ccc(-c2ccc(NC(=O)C3(c4cccc(F)c4)CC3)cc2-c2nnn[nH]2)cc1OC [Example 10, N-[3′,4′-dimethoxy-2-(1H-tetrazol-5-yl)biphenyl-4-yl]-1-(3-fluorophenyl) cyclopropane-carboxamide]
43 nM | COc1ccc(-c2ccc(NC(=O)C3(c4ccc(F)cc4)CC3)cc2-c2nnn[nH]2)cc1OC [Example 11, N-[3′,4′-dimethoxy-2-(1H-tetrazol-5-yl)biphenyl-4-yl]-1-(4-fluorophenyl) cyclopropane-carboxamide]
86.6 nM | COc1ccc(-c2ccc(NC(=O)C3(c4cc(F)cc(F)c4)CC3)cc2-c2nnn[nH]2)cc1OC [Example 13, 1-(3,5-difluorophenyl)-N-[3′,4′-dimethoxy-2-(1H-tetrazol-5-yl)biphenyl-4-yl]cyclopropane carboxamide]
101 nM | COc1ccc(-c2ccc(NC(=O)C3(c4ccc(F)c(Cl)c4)CC3)cc2-c2nnn[nH]2)cc1OC [Example 14, 1-(3-chloro-4-fluorophenyl)-N-[3′,4′-dimethoxy-2-(1H-tetrazol-5-yl)biphenyl-4-yl]cyclopropane carboxamide]
40.9 nM | COc1ccc(-c2ccc(NC(=O)C3(c4cc(F)cc(Cl)c4)CC3)cc2-c2nnn[nH]2)cc1OC [Example 15, 1-(3-chloro-5-fluorophenyl)-N-[3′,4′-dimethoxy-2-(1H-tetrazol-5-yl)biphenyl-4-yl]cyclopropane carboxamide]
42.9 nM | COc1ccc(-c2ccc(NC(=O)C3(c4ccc(OC(F)(F)F)cc4)CC3)cc2-c2nnn[nH]2)cc1OC [Example 19, N-[3′,4′-dimethoxy-2-(1H-tetrazol-5-yl)biphenyl-4-yl]-1-[4-(trifluoromethoxy)phenyl] cyclopropane-carboxamide]
54.4 nM | COc1ccc(-c2ccc(NC(=O)C3(c4ccc(C(F)(F)F)cc4F)CC3)cc2-c2nnn[nH]2)cc1OC [Example 20, N-[3′,4′-dimethoxy-2-(1H-tetrazol-5-yl)biphenyl-4-yl]-1-[2-fluoro-4-(trifluoromethyl)phenyl] cyclopropane-carboxamide]
367 nM | COc1ccc(-c2ccc(NC(=O)C3(c4cc(F)ccc4F)CC3)cc2-c2nnn[nH]2)cc1OC [Example 21, 1-(2,5-difluorophenyl)-N-[3′,4′-dimethoxy-2-(1H-tetrazol-5-yl)biphenyl-4-yl]cyclopropane carboxamide]
212 nM | COc1ccc(-c2ccc(NC(=O)C3(c4cccc(OC(F)F)c4)CC3)cc2-c2nnn[nH]2)cc1OC [Example 22, 1-[3-(difluoromethoxy)phenyl]-N-[3′,4′-dimethoxy-2-(1H-tetrazol-5-yl)biphenyl-4-yl]cyclopropane carboxamide]
232 nM | COc1ccc(C2(C(=O)Nc3ccc(-c4ccc(OC)c(OC)c4)c(-c4nnn[nH]4)c3)CC2)cc1F [Example 24, N-[3′,4′-dimethoxy-2-(1H-tetrazol-5-yl)biphenyl-4-yl]-1-(3-fluoro-4-methoxyphenyl) cyclopropane-carboxamide]
57.4 nM | COc1ccc(-c2ccc(NC(=O)C3(c4ccc(F)c(F)c4)CC3)cc2-c2nnn[nH]2)cc1OC [Example 25, 1-(3,4-difluorophenyl)-N-[3′,4′-dimethoxy-2-(1H-tetrazol-5-yl)biphenyl-4-yl]cyclopropane-carboxamide]
91.7 nM | COc1ccc(-c2ccc(NC(=O)C3(c4cccc(F)c4F)CC3)cc2-c2nnn[nH]2)cc1OC [Example 26, 1-(2,3-difluorophenyl)-N-[3′,4′-dimethoxy-2-(1H-tetrazol-5-yl)biphenyl-4-yl]cyclopropane carboxamide]

Compound | IC50
1-(3- chlorophenyl)- N-[4′- (methoxymethyl)- 2-(1H- tetrazol-5- yl(biphenyl-4- yl]cyclopropane carboxamide [Example 123] | 645 nM
